This passage reports interfacial tension results from the NIST ThermoML archive (doi:10.1021/je401066j).

Numbers after ± are expanded uncertainties.

The conditions of this data set: 101 kPa, Liquid mixture 1, Drop volume.

Regarding `CCCCCC` [hexane] + O, the interfacial tension (288.2 K) turned out to be 51.4 ± 0.4 mN/m; the interfacial tension (293.2 K) is reported as 51 ± 0.4 mN/m; the interfacial tension (298.2 K) is reported as 50.7 ± 0.4 mN/m; the interfacial tension (303.2 K) is recorded as 50.4 ± 0.4 mN/m; the interfacial tension (308.2 K) is 50.2 ± 0.4 mN/m.
